# Measured values: patent US6838580B2, “Opioid derivative” (Teikoku Seiyaku Co., Ltd., priority 2002, dated 2005)
# “Also recorded” adds a separate entry of the source. Marks after values point to notes of the source that are not given here.
# Key:
# SD Male rats [1] = test: Analgesic effect, Randoll-Seritto hind limb pressure method, subcutaneous administration; type: in vivo; conditions: rat, s.c.
# Procedure: (§1) SD Male rats, weighing 110 to 130 g, were used. One group consisted of five rats. The analgesic effects were examined by a Randoll-Seritto method. […] The threshold was expressed in mm Hg. During the measurement, the upper limit of the pressure applied to a hind limb was 100 mm Hg in order to avoid damage of the tissues.
# (§2) 2) When administered intravenously (i.v.), a volume of 2 ml/kg weight was administered to a tail vein and, when administered subcutaneously (s.c.), a volume of 2 ml/kg weight was subcutaneously administered to the back. In the case of intravenous administration, a 1 mg/kg, 3 mg/kg or 10 mg/kg compound of Ex.1 administration group, a 1 mg/kg, 3 mg/kg or 10 mg/kg compound of Ex.4 administration group, a 2 ml/kg physiological saline administration group and a 5 mg/kg morphine hydrochloride administration group were made, respectively. In the case of subcutaneous administration, a 10 mg/kg, 30 mg/kg or 100 mg/kg compound of Ex.1 administration group, a 10 mg/kg, 30 mg/kg or 100 mg/kg compound of Ex.4 administration group, a 2 ml/kg physiological saline administration group and a 5 mg/kg morphine hydrochloride administration group were made, respectively. Observation of the analgesic action was performed 15 minutes, 30 minutes, 1 hour and 2 hours after administration in the case of intravenous administration, 30 minutes, 1 hour, 2 hours and 3 hours after administration in the case of subcutaneous administration, respectively.
# (§3) In order to perform a significant difference test between respective administration groups and control groups, and between values at respective times before administration and after administration, a Dunnet multiple comparative test method was used. In the statistical processing for performing a significant difference test between morphine hydrochloride administration groups and control groups, Student t-test was used. For performing a significant difference test between values at respective times before administration and after administration in morphine hydrochloride administration groups, a Dunnet multiple comparative test method was used. A significant level was at 5 or lower % risk rate (two-tailed test).
# SD Male rats [2] = test: Analgesic effect, Randoll-Seritto hind limb pressure method, intravenous administration; type: in vivo; conditions: rat, i.v.
# Procedure: as §1, §2, §3
# SD Male rats [3] = test: Analgesic effect, Randoll-Seritto hind limb pressure method, intracerebroventricular administration; type: in vivo; conditions: rat, i.c.v.
# Text: as §1
# 1) When performing intracerebroventricular administration (i.c.v.), a rat was fixed to a brain stereotactic fixing apparatus under slight ether anesthesia, the skin at a head was dissected, and an administration cannula was inserted into a place at a transverse of […] from a bregma position and a depth of 3.5 to 4.0 mm. The administration volume was 10 μl/animal. Observation of the analgesic action was performed before administration, and at 30 minutes, and 1, 2, 3, 4 and 5 hours after administration. Doses of both compounds were 0.1, 1 and 10 μg/animal. Separately, a group to which 5 mg/kg of naltrexone hydrochloride was administered subcutaneously immediately after compound of Ex.1 10 μg/animal i.c.v and a group to which 5 mg/kg of naltrexone hydrochloride was administered subcutaneously immediately after compound of Ex.4 10 μg/animal i.c.v. was made. In addition, as morphine hydrochloride at a dose of 3 μg/animal i.c.v. group was used as a positive control group and a physiological saline 10 μl/animal i.c.v. group as a control group was made, respectively.
# as §3
# δ-opioid receptor = target: T1, δ-opioid receptor (Mus musculus, UniProt P32300); test: Mouse seminiferous tract (MVD) assay, inhibition of electrically stimulated constriction; type: cell-based; conditions: agonist activity, read-out: MVD (IC50 ± S.E.)
# T1 construct: using mouse seminiferous tract in place of guinea pig ileum; from tissue; host or cells: mouse seminiferous tract (vas deferens, MVD), organ bath
# T1 sequence (P32300 whole entry): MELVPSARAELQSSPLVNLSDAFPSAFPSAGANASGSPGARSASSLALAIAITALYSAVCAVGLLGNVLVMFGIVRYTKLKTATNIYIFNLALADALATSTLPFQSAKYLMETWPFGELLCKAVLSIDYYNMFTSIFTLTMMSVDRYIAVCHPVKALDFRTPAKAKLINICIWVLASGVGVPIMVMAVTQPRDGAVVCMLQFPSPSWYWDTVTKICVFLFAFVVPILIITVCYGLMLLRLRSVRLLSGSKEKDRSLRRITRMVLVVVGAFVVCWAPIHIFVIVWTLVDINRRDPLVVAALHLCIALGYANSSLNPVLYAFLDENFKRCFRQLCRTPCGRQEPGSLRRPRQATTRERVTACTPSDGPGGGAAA
# [4] = 10 mg/kg, before administration
smiles,measurement,setting,value
"Cc1cc(O)cc(C)c1C[C@H](N)C(=O)NCCCCNC(=O)[C@@H](N)Cc1c(C)cc(O)cc1C.Cl.Cl [Ex.1, 1,4-Bis-(Dmt-amino)butane.2HCl]","Change in escape reaction threshold / analgesic effect, in words",SD Male rats [1]; 10 mg/kg,tendency of an increase in the threshold was seen; also recorded: exhibited the significant analgesic effect as compared with control groups
same,Threshold (mmHg),"SD Male rats [1]; 10 mg/kg, 0.5 hr",55 ± 5 mmHg
same,Threshold (mmHg),"SD Male rats [1]; 10 mg/kg, 1 hr",62 ± 6 mmHg
same,Threshold (mmHg),"SD Male rats [1]; 10 mg/kg, 2 hr",58 ± 3 mmHg
same,Threshold (mmHg),"SD Male rats [1]; 10 mg/kg, 3 hr",57 ± 2 mmHg
same,Threshold (mmHg),SD Male rats [1]; [4],47 ± 2 mmHg
same,"Change in escape reaction threshold / analgesic effect, in words",SD Male rats [1]; 30 mg/kg,significant increase in the threshold was seen 1 hour and 2 hours after administration
same,Threshold (mmHg),"SD Male rats [1]; 30 mg/kg, 0.5 hr",52 ± 4 mmHg
same,Threshold (mmHg),"SD Male rats [1]; 30 mg/kg, 1 hr",65 ± 5^$$ mmHg
same,Threshold (mmHg),"SD Male rats [1]; 30 mg/kg, 2 hr","68 ± 3**^,$$ mmHg"
same,Threshold (mmHg),"SD Male rats [1]; 30 mg/kg, 3 hr",59 ± 4 mmHg
same,Threshold (mmHg),"SD Male rats [1]; 30 mg/kg, before administration",47 ± 2 mmHg
same,"Change in escape reaction threshold / analgesic effect, in words",SD Male rats [1]; 100 mg/kg,significant increase was seen at any measuring time after administration; also recorded: approximately comparative to the effect by morphine 5 mg/kg subcutaneous administration
same,Threshold (mmHg),"SD Male rats [1]; 100 mg/kg, 0.5 hr","86 ± 2**^,$$ mmHg"
same,Threshold (mmHg),"SD Male rats [1]; 100 mg/kg, 1 hr","77 ± 2**^,$$ mmHg"
same,Threshold (mmHg),"SD Male rats [1]; 100 mg/kg, 2 hr","77 ± 2**^,$$ mmHg"
same,Threshold (mmHg),"SD Male rats [1]; 100 mg/kg, 3 hr","70 ± 3**^,$$ mmHg"
same,Threshold (mmHg),"SD Male rats [1]; 100 mg/kg, before administration",47 ± 2 mmHg
same,Threshold (mmHg),"SD Male rats [2]; 1 mg/kg, before administration",48 ± 2 mmHg
same,Threshold (mmHg),"SD Male rats [2]; 3 mg/kg, 0.25 hr",55 ± 2 mmHg
same,Threshold (mmHg),"SD Male rats [2]; 3 mg/kg, 0.5 hr",56 ± 3 mmHg
same,Threshold (mmHg),"SD Male rats [2]; 3 mg/kg, 1 hr",52 ± 4 mmHg
same,Threshold (mmHg),"SD Male rats [2]; 3 mg/kg, 2 hr",49 ± 2 mmHg
same,Threshold (mmHg),"SD Male rats [2]; 3 mg/kg, before administration",48 ± 2 mmHg
same,"Change in escape reaction threshold / analgesic effect, in words",SD Male rats [2]; 10 mg/kg,significant increase in the threshold was seen 15 minutes after administration; also recorded: exhibited an analgesic effect but is weaker as compared with the case of morphine 10 mg/kg administration and its duration time was shorter
same,Threshold (mmHg),"SD Male rats [2]; 10 mg/kg, 0.25 hr","60 ± 2**^,$$ mmHg"
same,Threshold (mmHg),"SD Male rats [2]; 10 mg/kg, 0.5 hr",56 ± 3 mmHg
same,Threshold (mmHg),"SD Male rats [2]; 10 mg/kg, 1 hr",54 ± 2 mmHg
same,Threshold (mmHg),"SD Male rats [2]; 10 mg/kg, 2 hr",53 ± 2 mmHg
same,Threshold (mmHg),SD Male rats [2]; [4],48 ± 2 mmHg
same,Threshold (mmHg),"SD Male rats [3]; 0.1 μg/animal, 0.5 hr",47 ± 1 mmHg
same,Threshold (mmHg),"SD Male rats [3]; 0.1 μg/animal, 1 hr",50 ± 2 mmHg
same,Threshold (mmHg),"SD Male rats [3]; 0.1 μg/animal, 2 hr",50 ± 1 mmHg
same,Threshold (mmHg),"SD Male rats [3]; 0.1 μg/animal, 3 hr",48 ± 2 mmHg
same,Threshold (mmHg),"SD Male rats [3]; 0.1 μg/animal, 4 hr",48 ± 1 mmHg
same,Threshold (mmHg),"SD Male rats [3]; 0.1 μg/animal, 5 hr",49 ± 1 mmHg
same,Threshold (mmHg),"SD Male rats [3]; 0.1 μg/animal, before administration",47 ± 1 mmHg
same,Threshold (mmHg),"SD Male rats [3]; 1 μg/animal, 0.5 hr",51 ± 3 mmHg
same,Threshold (mmHg),"SD Male rats [3]; 1 μg/animal, 1 hr",54 ± 3 mmHg
same,Threshold (mmHg),"SD Male rats [3]; 1 μg/animal, 2 hr",49 ± 1 mmHg
same,Threshold (mmHg),"SD Male rats [3]; 1 μg/animal, 3 hr",49 ± 2 mmHg
same,Threshold (mmHg),"SD Male rats [3]; 1 μg/animal, 4 hr",48 ± 2 mmHg
same,Threshold (mmHg),"SD Male rats [3]; 1 μg/animal, 5 hr",47 ± 1 mmHg
same,Threshold (mmHg),"SD Male rats [3]; 1 μg/animal, before administration",47 ± 2 mmHg
same,"Change in escape reaction threshold / analgesic effect, in words",SD Male rats [3]; 10 μg/animal,significant increase in the threshold was seen in the 10 μg/administration group 30 minutes and 1 hour after administration
same,Threshold (mmHg),"SD Male rats [3]; 10 μg/animal + Naltrexon 5 mg/kg s.c., 0.5 hr",49 ± 1 mmHg
same,Threshold (mmHg),"SD Male rats [3]; 10 μg/animal + Naltrexon 5 mg/kg s.c., 1 hr",53 ± 3 mmHg
same,Threshold (mmHg),"SD Male rats [3]; 10 μg/animal + Naltrexon 5 mg/kg s.c., 2 hr",54 ± 2 mmHg
same,Threshold (mmHg),"SD Male rats [3]; 10 μg/animal + Naltrexon 5 mg/kg s.c., 3 hr",52 ± 2 mmHg
same,Threshold (mmHg),"SD Male rats [3]; 10 μg/animal + Naltrexon 5 mg/kg s.c., 4 hr",49 ± 1 mmHg
same,Threshold (mmHg),"SD Male rats [3]; 10 μg/animal + Naltrexon 5 mg/kg s.c., 5 hr",50 ± 1 mmHg
same,Threshold (mmHg),"SD Male rats [3]; 10 μg/animal + Naltrexon 5 mg/kg s.c., before administration",47 ± 2 mmHg
same,"Change in escape reaction threshold / analgesic effect, in words",SD Male rats [3]; 10 μg/animal followed by naltrexone 5 mg/kg s.c.,dissipated by naltrexone 5 mg/kg subcutaneous administration
same,Threshold (mmHg),"SD Male rats [3]; 10 μg/animal, 0.5 hr","61 ± 8*^,$ mmHg"
same,Threshold (mmHg),"SD Male rats [3]; 10 μg/animal, 1 hr","61 ± 5**^,$ mmHg"
same,Threshold (mmHg),"SD Male rats [3]; 10 μg/animal, 2 hr",54 ± 4 mmHg
same,Threshold (mmHg),"SD Male rats [3]; 10 μg/animal, 3 hr",51 ± 3 mmHg
same,Threshold (mmHg),"SD Male rats [3]; 10 μg/animal, 4 hr",52 ± 2 mmHg
same,Threshold (mmHg),"SD Male rats [3]; 10 μg/animal, 5 hr",52 ± 1 mmHg
same,Threshold (mmHg),"SD Male rats [3]; 10 μg/animal, before administration",48 ± 2 mmHg
same,IC50,δ-opioid receptor,> 10 µM
